Laboratory results taken from PMC11448925, “Crystal structure of guanosine 5′-monophosphate synthetase from the thermophilic bacterium Thermus thermophilus HB8” (Acta Crystallographica Section F: Structural Biology …, 2024).

What was measured:
[1] = target: T1, TtGuaA (GMP synthetase, GuaA) (Thermus thermophilus, UniProt Q5SI28); test: X-ray crystallography, […] Å; format: binding; conditions: co-crystal with 10 mM XMP, pH 4.4, 20 °C; site between ATPPase and dimerization domains
T1 construct: full length, 503 residues, no tag; pET-11a in E. coli Rosetta(DE3); selenomethionyl crystals for the XMP complex; homodimer
T1 sequence (Q5SI28 1-503): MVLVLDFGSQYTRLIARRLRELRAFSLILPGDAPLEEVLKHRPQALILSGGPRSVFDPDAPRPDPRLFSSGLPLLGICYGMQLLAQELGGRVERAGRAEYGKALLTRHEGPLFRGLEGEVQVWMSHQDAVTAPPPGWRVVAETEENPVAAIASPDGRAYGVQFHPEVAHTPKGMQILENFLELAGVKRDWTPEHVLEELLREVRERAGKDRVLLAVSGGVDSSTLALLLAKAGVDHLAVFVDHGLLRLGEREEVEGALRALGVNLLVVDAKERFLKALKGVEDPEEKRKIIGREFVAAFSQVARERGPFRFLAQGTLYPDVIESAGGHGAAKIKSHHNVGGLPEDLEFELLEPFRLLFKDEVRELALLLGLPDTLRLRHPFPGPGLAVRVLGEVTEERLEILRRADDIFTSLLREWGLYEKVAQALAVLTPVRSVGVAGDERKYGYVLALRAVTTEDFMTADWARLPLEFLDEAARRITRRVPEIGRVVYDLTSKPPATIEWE

[2] = target: the molecule itself; test: SEC; size-exclusion chromatography of purified TtGuaA; conditions of the estimate not told

O=c1[nH]c(=O)c2ncn([C@@H]3O[C@H](COP(=O)(O)O)[C@@H](O)[C@H]3O)c2[nH]1 [XMP]
X-ray crystallography, 2.20 Å [1]: In TtGuaA–XMP, one XMP molecule was bound to each monomer.

B1: Guanosine 5′-monophosphate (GMP) synthetase (GuaA) from Thermus thermophilus HB8 (enzyme, Thermus thermophilus (strain HB8))
chain: T1 sequence (Q5SI28 1-503)
notes: GMP synthetase (GuaA), Thermus thermophilus HB8, gene TTHA1552; The apo structure (2ywb) was solved with native protein; the XMP complex (2ywc) was solved from selenomethionyl protein crystals; No tag is stated for the construct; also called TtGuaA; TTHA1552
stoichiometry N [2]: 2
